Laboratory results reported in PMC9146500, “New Quinoline–Urea–Benzothiazole Hybrids as Promising Antitubercular Agents: Synthesis, In Vitro Antitubercular Activity, Cytotoxicity Studies, and In Silico ADME Profiling” (Pharmaceuticals, 2022).
Values after ≈ are worked out from the molar mass of the structure shown. Where two headings read alike, the source gives them in different places.

Tests used:
[1] = system: Mycobacterium tuberculosis H37Rv pMSp12::GFP; experiment: microbe, parasite or virus in culture; assay type: cell-based; conditions: Mtb H37Rv, protein-rich media, 7 days, read-out: MIC90 7H9/ADC/GLU/Tw 7 Days
[2] = system: Mycobacterium tuberculosis H37Rv pMSp12::GFP; experiment: microbe, parasite or virus in culture; assay type: cell-based; conditions: Mtb H37Rv
MTT cytotoxicity assay = conditions: human; for IC20 at 24 h: IC20, HepG2, 24 h, MTT, concentration at which cells retain 80% viability, extrapolated from the dose–response curve
[3] = Mycobacterium tuberculosis, H37RV, 168 h
[4] = Mycobacterium tuberculosis, H37RV, 168 h, protein-poor media, 7 days, read-out: MIC90 7H9/CAS/GLU/Tx 7 Days
[5] = protein-poor media, 7 days, read-out: MIC90 7H9/CAS/GLU/Tx 7 Days
[6] = both media (CAS and ADC) or medium not given

## NCCCCCCNc1ccnc2cc(Cl)ccc12 [Compound 2e]
[1]; [3]
  MIC90: > 125 µM
[2]; [4]
  MIC90: > 125 µM

## O=C(Nc1nc2ccc(F)cc2s1)n1ccnc1 [Compound 5b]
[1]; [3]
  MIC90: > 125 µM
[2]; [4]
  MIC90: > 125 µM

## O=C(NNc1ccnc2cc(Cl)ccc12)Nc1nc2ccccc2s1 [Compound 6a, N-(Benzo[d]thiazol-2yl)-2-(7-chloroquinolin-4-yl)hydrazine-1-carboxamide]
[1]; [3]
  MIC90: > 125 µM
[2]; [5]
  MIC90: 21.001 µM (≈ 7.77 µg/mL)
[2]; [4]
  MIC90: 21 µM (≈ 7.77 µg/mL)
MTT cytotoxicity assay
  viability at 24 h: 75%
  IC20 at 24 h: 15.1 µM

## O=C(NNc1ccnc2cc(Cl)ccc12)Nc1nc2ccc(C(F)(F)F)cc2s1 [Compound 6b, 2-(7-Chloroquinolin-4-yl)-N-(6-(trifluoromethyl)benzo[d]thiazol-2-yl)hydrazine-1-carboxamide]
[1]; [3]
  MIC90: 6.85 µM (≈ 3 µg/mL)
[2]; [6]
  MIC90: excellent activity in both media
[2]; [4]
  MIC90: 4.94 µM (≈ 2.16 µg/mL)

## O=C(NNc1ccnc2cc(Cl)ccc12)Nc1nc2ccc(F)cc2s1 [Compound 6c, 2-(7-Chloroquinolin-4-yl)-N-(6-fluorobenzo[d]thiazol-2-yl)hydrazine-1-carboxamide]
[1]; [3]
  MIC90: > 125 µM
[2]; [4]
  MIC90: > 125 µM

## O=C(NNc1ccnc2cc(Cl)ccc12)Nc1nc2ccc([N+](=O)[O-])cc2s1 [Compound 6d, 2-(7-Chloroquinolin-4-yl)-N-(6-nitrobenzo[d]thiazol-2-yl)hydrazine-1-carboxamide]
[1]; [3]
  MIC90: > 125 µM
[2]; [4]
  MIC90: > 125 µM

## O=C(NCCNc1ccnc2cc(Cl)ccc12)Nc1nc2ccc(C(F)(F)F)cc2s1 [Compound 6e, 1-(2-((7-Chloroquinolin-4-yl)amino)ethyl)-3-(6-(trifluoromethyl)benzo[d]thiazol-2-yl)urea]
other
  melting point: 249 to 251 °C

## O=C(NCCNc1ccnc2cc(Cl)ccc12)Nc1nc2ccc(Cl)cc2s1 [Compound 6f, 1-(6-Chlorobenzo[d]thiazol-2-yl)-3-(2-((7-chloroquinolin-4-yl)amino)ethyl)urea]
other
  melting point: 244 to 245 °C
[1]; [3]
  MIC90: > 125 µM
[2]; [4]
  MIC90: 125 µM (≈ 54 µg/mL)

## O=C(NCCNc1ccnc2cc(Cl)ccc12)Nc1nc2ccc(F)cc2s1 [Compound 6h, 1-(6-Fluorobenzo[d]thiazol-2-yl)-3-(2-((7-chloroquinolin-4-yl)amino)ethyl)urea]
[1]; Mycobacterium tuberculosis, 168 h
  MIC: 62.5 µM (≈ 26 µg/mL)
[2]; Mycobacterium tuberculosis, 168 h, protein-poor media, 7 days, read-out: MIC90 7H9/CAS/GLU/Tx 7 Days
  MIC: 62.5 µM (≈ 26 µg/mL)
[2]; Mycobacterium tuberculosis, H37RV, both media (CAS and ADC) or medium not given, read-out: MIC90
  MIC90: 62.5 µM (≈ 26 µg/mL)

## O=C(NCCCNc1ccnc2cc(Cl)ccc12)Nc1nc2ccccc2s1 [Compound 6l, 1-(3-((7-Chloroquinolin-4-yl)amino)propyl)-3-(benzo[d]thiazol-2-yl)urea]
[1]
  MIC90: 9.447 µM (≈ 3.89 µg/mL)
[1]; [3]
  MIC90: 9.45 µM (≈ 3.89 µg/mL)
[2]; [4]
  MIC90: 9.63 µM (≈ 3.97 µg/mL)
MTT cytotoxicity assay
  viability at 24 h: 100%
  IC20 at 24 h: 105 µM

## O=C(NCCCNc1ccnc2cc(Cl)ccc12)Nc1nc2ccc(F)cc2s1 [Compound 6n, 1-(6-Fluorobenzo[d]thiazol-2-yl)-3-(3-((7-chloroquinolin-4-yl)amino)propyl)urea]
other
  melting point: 241 to 243 °C
[1]; [3]
  MIC90: 125 µM (≈ 53.7 µg/mL)
[2]; [6]
  MIC90: devoid of any activity
[2]; [4]
  MIC90: > 125 µM

## CC(CNc1ccnc2cc(Cl)ccc12)NC(=O)Nc1nc2ccc(C(F)(F)F)cc2s1 (stereo not drawn) [Compound 6u, 1-(1-((7-Chloroquinolin-4-yl)amino)propan-2-yl)-3-(6-(trifluoromethyl)benzo[d]thiazol-2-yl)urea]
[1]
  MIC90: 5.732 µM (≈ 2.75 µg/mL)
[1]; [3]
  MIC90: 5.73 µM (≈ 2.75 µg/mL)
[2]; [5]
  MIC90: 0.968 µM (≈ 0.465 µg/mL)
[2]; [4]
  MIC90: 0.97 µM (≈ 0.466 µg/mL)
MTT cytotoxicity assay
  viability at 24 h: 100%
  IC20 at 24 h: 6.01 µM

## CO[C@H]1/C=C/O[C@@]2(C)Oc3c(C)c(O)c4c(O)c(c(/C=N/N5CCN(C)CC5)c(O)c4c3C2=O)NC(=O)/C(C)=C\C=C\[C@H](C)[C@H](O)[C@@H](C)[C@@H](O)[C@@H](C)[C@H](OC(C)=O)[C@@H]1C [RIF, Rifampicin, reference compound]
[1]; [3]
  MIC90: 0.001 µM (≈ 0.000823 µg/mL)
[2]; [4]
  MIC90: 0.03 µM (≈ 0.0247 µg/mL)

## NC(N)=O [Urea]
[1]
  MIC90: >125 µM
[2]; [5]
  MIC90: >125 µM
